Data taken from PMC11945486, “TAS1R2/TAS1R3 Single-Nucleotide Polymorphisms Affect Sweet Taste Receptor Activation by Sweeteners: The SWEET Project” (Nutrients, 2025).
Read-outs that look alike come from different tables or passages of the source. Blank lines part the entries; values can stand above or below the molecule they belong to. No end group written: not given here.

Molecular target: T1, human TAS1R2-WT/TAS1R3-F514L (Homo sapiens, UniProt Q7RTX0+Q8TE23, F514L)
T1 construct: expressed in transfected cells; host or cells: HEK293T stably expressing Gα16gust44
T1 sequence (Q8TE23 20-839): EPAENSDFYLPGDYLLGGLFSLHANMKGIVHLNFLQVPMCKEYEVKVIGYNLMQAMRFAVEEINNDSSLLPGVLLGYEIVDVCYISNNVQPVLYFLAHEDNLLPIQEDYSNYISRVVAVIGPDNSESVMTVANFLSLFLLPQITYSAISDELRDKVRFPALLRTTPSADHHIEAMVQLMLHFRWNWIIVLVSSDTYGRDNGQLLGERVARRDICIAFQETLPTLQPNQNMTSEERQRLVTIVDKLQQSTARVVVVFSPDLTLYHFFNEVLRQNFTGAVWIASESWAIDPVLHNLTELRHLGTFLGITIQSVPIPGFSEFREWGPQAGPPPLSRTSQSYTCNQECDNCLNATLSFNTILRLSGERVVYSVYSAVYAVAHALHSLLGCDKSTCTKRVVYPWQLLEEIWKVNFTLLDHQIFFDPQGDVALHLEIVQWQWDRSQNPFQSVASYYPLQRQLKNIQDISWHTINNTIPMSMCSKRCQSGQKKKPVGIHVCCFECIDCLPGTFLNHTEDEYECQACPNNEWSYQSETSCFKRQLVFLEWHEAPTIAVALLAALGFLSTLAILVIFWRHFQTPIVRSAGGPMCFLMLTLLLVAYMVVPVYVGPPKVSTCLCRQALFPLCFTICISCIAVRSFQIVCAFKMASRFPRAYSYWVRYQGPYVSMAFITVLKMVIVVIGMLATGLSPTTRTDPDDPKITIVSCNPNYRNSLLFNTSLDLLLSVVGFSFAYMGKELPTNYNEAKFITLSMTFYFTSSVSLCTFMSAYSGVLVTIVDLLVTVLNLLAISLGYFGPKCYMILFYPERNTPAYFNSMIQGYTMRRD
T1 sequence (Q7RTX0 21-852 F514L): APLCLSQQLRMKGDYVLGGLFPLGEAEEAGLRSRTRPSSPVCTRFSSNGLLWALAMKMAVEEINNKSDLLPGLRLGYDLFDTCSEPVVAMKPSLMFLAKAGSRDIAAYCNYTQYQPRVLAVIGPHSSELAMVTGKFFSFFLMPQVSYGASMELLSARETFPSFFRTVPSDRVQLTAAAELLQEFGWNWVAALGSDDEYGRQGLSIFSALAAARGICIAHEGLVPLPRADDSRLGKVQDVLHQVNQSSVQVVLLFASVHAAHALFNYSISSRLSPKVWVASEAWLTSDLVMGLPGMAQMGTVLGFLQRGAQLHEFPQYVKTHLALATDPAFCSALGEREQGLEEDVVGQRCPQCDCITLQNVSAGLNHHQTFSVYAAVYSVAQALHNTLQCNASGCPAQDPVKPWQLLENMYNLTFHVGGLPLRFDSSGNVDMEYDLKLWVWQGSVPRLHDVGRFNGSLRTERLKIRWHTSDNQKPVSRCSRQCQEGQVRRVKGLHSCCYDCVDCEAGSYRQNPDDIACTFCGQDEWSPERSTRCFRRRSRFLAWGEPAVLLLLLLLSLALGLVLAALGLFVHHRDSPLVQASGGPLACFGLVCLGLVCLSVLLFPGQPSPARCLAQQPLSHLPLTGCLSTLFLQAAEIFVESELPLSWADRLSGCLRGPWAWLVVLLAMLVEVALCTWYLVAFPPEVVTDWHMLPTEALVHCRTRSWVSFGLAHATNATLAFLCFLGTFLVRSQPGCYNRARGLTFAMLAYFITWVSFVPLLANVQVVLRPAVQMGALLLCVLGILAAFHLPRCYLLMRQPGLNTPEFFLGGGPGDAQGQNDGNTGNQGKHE
Experiment: Calcium mobilisation assay, TAS1R2-WT with TAS1R3 variant F514L
Assay type: cell-based
Settings: for Max ΔF/F0: maximal signal amplitude
Description: The coding sequences for TAS1R2 and TAS1R3 were commercially synthesised, and the human codon was optimised for expression in human cells. The coding sequences of human TAS1R2 and TAS1R3 were subcloned and inserted into the mammalian expression vectors pcDNA6/myc-HisA and pcDNA4/myc-HisA (Invitrogen; Thermo Fisher Scientific; Illkirch, France) between the EcoRI and NotI restriction sites, generating the plasmids pcDNA6-TAS1R2 and pcDNA4-TAS1R3, respectively. To increase protein expression in mammalian cells, an upstream start codon was used, which was a sequence called MAX, corresponding to the QBI SP163 element also described in pcDNA4-HisMax (Invitrogen; Thermo Fisher Scientific; Illkirch, France). To measure the expression level of the receptor by immunohistochemistry, we used the FLAG sequence ([…]) in the C-terminal position, which encodes the FLAG tag epitope. SNP variants of TAS1R2 and TAS1R3 were constructed based on […], respectively, using site-directed mutagenesis (Genewiz; Leipzig, Germany).
The HEK293T cells were kindly provided by Jay P. Slack (Givaudan Flavors Corporation; Cincinnati, OH, USA). HEK293T cells stably transfected with Gα16gust44 [43, 67] were seeded in poly-D-lysine-coated clear-bottom black 96-well plates (0.35 × 10^5 cells/well) in high-glucose DMEM supplemented with 2 mM GlutaMAX, 10% dialysed foetal bovine serum with penicillin/streptomycin and G418 (400 μg/mL) at 37 °C and 6.3% CO2 in a humidified atmosphere as previously reported. […] As a negative control, HEK293T cells were mock-transfected with the empty expression vector. After a further 24 h of incubation, the HEK293T cells were washed with C1 buffer (130 mM NaCl, 5 mM KCl, 10 mM HEPES pH 7.4 and 2 mM CaCl2). The 96-well plates containing the cells were then stimulated with sweet-tasting compounds. […] Different concentration ranges were tested depending on the sweet compound injected. The Ca^2+ changes were expressed as fractional changes in fluorescent light intensity: ΔF/F = (F − F0)/F0, where F was the fluorescent light intensity at each point, and F0 was the value of emitted fluorescent light prior to stimulus application. To calculate dose–response relationships, the changes in fluorescence upon stimulus application were averaged, mock-subtracted and baseline-corrected. The dose–response data obtained were adjusted using a 4-parameter logistic equation. The half-maximal effective concentrations (EC50 values) and maximal signal amplitudes were calculated using SigmaPlot software (version 15.0) (Systat Software; San Jose, CA, USA).
For in vitro calcium mobilisation assay performed on hTAS1R2-SNPs, hTAS1R3-SNPs and mTAS1R3-I60T, 6 to 7 concentrations were tested for each sweet compound, plus buffer alone. All concentration–receptor combinations were measured in duplicate, and each experiment was repeated at least 4 times (8 wells/concentration). Results were expressed for each concentration as ΔF/F mean ± SEM and represented as dose–response curves.

- R1 = Variant EC50/WT EC50: 0.7
- Max ΔF/F0: 0.14 ± 0.01
- EC50 (read-out: EC50): 442 ± 24 µM
Molecule: CC1=CC(=O)NS(=O)(=O)O1 [Acesulfame K, acesulfame K]

Molecule: O=S(=O)(O)NC1CCCCC1 [Cyclamate, cyclamate]
- EC50 (read-out: EC50): 1250 ± 30 µM

Molecule: C[C@H](CC[C@@H](O[C@@H]1O[C@H](CO[C@@H]2O[C@H](CO)[C@@H](O)[C@H](O)[C@H]2O)[C@@H](O)[C@H](O)[C@H]1O[C@@H]1O[C@H](CO)[C@@H](O)[C@H](O)[C@H]1O)C(C)(C)O)[C@H]1CC[C@@]2(C)[C@@H]3CC=C4[C@@H](CC[C@H](O[C@@H]5O[C@H](CO[C@@H]6O[C@H](CO)[C@@H](O)[C@H](O)[C@H]6O)[C@@H](O)[C@H](O)[C@H]5O)C4(C)C)[C@]3(C)[C@H](O)C[C@]12C [Mogroside V, mogroside V]
- R1 = Variant EC50/WT EC50: 1.4
- Max ΔF/F0: 0.79 ± 0.02
- EC50 (read-out: EC50): 44.7 ± 2.8 µM

- R1 = Variant EC50/WT EC50: 0.8
- Max ΔF/F0: 1.21 ± 0.08
- EC50 (read-out: EC50): 37.9 ± 8.4 µM
Molecule: COc1ccc(CCC(=O)c2c(O)cc(O[C@@H]3O[C@H](CO)[C@@H](O)[C@H](O)[C@H]3O[C@@H]3O[C@@H](C)[C@H](O)[C@@H](O)[C@H]3O)cc2O)cc1O [NHDC, neohesperidin dihydrochalcone]

- R1 = Variant EC50/WT EC50: 1.0
- Max ΔF/F0: 0.45 ± 0.01
- EC50 (read-out: EC50): 1.23 ± 0.06 µM
Molecule: COC(=O)[C@H](Cc1ccccc1)NC(=O)[C@H](CC(=O)O)NCCC(C)(C)C [Neotame]

- R1 = Variant EC50/WT EC50: 1.0
- Max ΔF/F0: 1.40 ± 0.24
- EC50 (read-out: EC50): 13.9 ± 7.3 µM
Molecule: C=C(C)[C@@H]1CC=C(/C=N/O)CC1 [Perillartine, perillartine]

- R1 = Variant EC50/WT EC50: 0.8
- Max ΔF/F0: 0.64 ± 0.02
- EC50 (read-out: EC50): 32.1 ± 2.5 µM
Molecule: C=C1C[C@@]23CC[C@H]4[C@@](C)(CCC[C@@]4(C)C(=O)O[C@@H]4O[C@H](CO)[C@@H](O)[C@H](O[C@@H]5O[C@H](CO)[C@@H](O)[C@H](O)[C@H]5O)[C@H]4O[C@@H]4O[C@H](CO)[C@@H](O)[C@H](O)[C@H]4O)[C@@H]2CC[C@]1(O[C@@H]1O[C@H](CO)[C@@H](O)[C@H](O[C@@H]2O[C@H](CO)[C@@H](O)[C@H](O)[C@H]2O)[C@H]1O[C@@H]1O[C@H](CO)[C@@H](O)[C@H](O)[C@H]1O)C3 [Rebaudioside M, rebaudioside M]

- R1 = Variant EC50/WT EC50: 1.3
- Max ΔF/F0: 0.49 ± 0.01
- EC50 (read-out: EC50): 141 ± 3 µM
Molecule: OC[C@H]1O[C@H](O[C@]2(CCl)O[C@H](CCl)[C@@H](O)[C@@H]2O)[C@H](O)[C@@H](O)[C@H]1Cl [Sucralose]

- R1 = Variant EC50/WT EC50: 0.4
- EC50 (brazzein): 44.4 ± 6.4 µg/mL
- Max ΔF/F0: 1.07 ± 0.04
Molecule: brazzein (QDKCKKVYENYPVSKCQLANQCNYDCKLDKHARSGECFYDEKRNLQCICDYCEY; ends and bridges not checked; cysteine pairing not given here; UniProt P56552 1-54, looked up) [sweet-tasting protein obtained by recombinant production using the yeast Pichia pastoris]

- R1 = Variant EC50/WT EC50: 0.9
- Max ΔF/F0: 0.72 ± 0.04
Molecule: thaumatin

- EC50 (read-out: EC50): 9.8 ± 1 µM
B1: thaumatin (protein)
chain: ATFEIVNRCSYTVWAAASKGDAALDAGGRQLNSGESWTINVEPGTKGGKIWARTDCYFDDSGSGICKTGDCGGLLRCKRFGRPPTTLAEFSLNQYGKDYIDISNIKGFNVPMDFSPTTRGCRGVRCAADIVGQCPAKLKAPGGGCNDACTVFQTSEYCCTTGKCGPTEYSRFFKRLCPDAFSYVLDKPTTVTCPGSSNYRVTFCPTA
modifications: Eight disulfides
notes: sweet-tasting plant protein, E957
